Results as given in patent publication US5858992A, “Non-reducing saccharides, their preparation and use” (Kabushiki Kaisha Hayashibara Seibutsu Kagaku Kenkyujo, priority 1995, dated 1999).

Assays:
[1] = tested on: Bacteroides vulgatus JCM 5826; test: Assimilation test by intestinal microorganism; assay type: cell-based; conditions: 0.5 w/v % saccharide in PYF broth, 37° C., 96 hours; free of sugar: -
[2] = tested on: Peptostreptococcus prevotii ATCC 9321; test: Assimilation test by intestinal microorganism; assay type: cell-based; conditions: 0.5 w/v % saccharide in PYF broth, 37° C., 96 hours; free of sugar: -
[3] = tested on: Eubacterium aerofaciens ATCC 25986; test: Assimilation test by intestinal microorganism; assay type: cell-based; conditions: 0.5 w/v % saccharide in PYF broth, 37° C., 96 hours; free of sugar: -
[4] = tested on: Bifidobacterium infantis JCM 1222; test: Assimilation test by intestinal microorganism; assay type: cell-based; conditions: 0.5 w/v % saccharide in PYF broth, 37° C., 96 hours; free of sugar: -
[5] = in vitro; conditions: gastric acid
[6] = tested on: Lactobacillus plantarum IFO 3070; test: Assimilation test by intestinal microorganism; assay type: cell-based; conditions: 0.5 w/v % saccharide in PYF broth, 37° C., 96 hours; free of sugar: -
[7] = tested on: Bifidobacterium breve JCM 1192; test: Assimilation test by intestinal microorganism; assay type: cell-based; conditions: 0.5 w/v % saccharide in PYF broth, 37° C., 96 hours; free of sugar: -
[8] = Maillard reaction (coloration with glycine); assay type: physicochemical; conditions: 10 w/v % saccharide, one w/v % glycine, 50 mM phosphate buffer pH 7.0, 100° C. for 90 min, 1-cm light-path cell
[9] = tested on: Lactobacillus fermentum IFO 3959; test: Assimilation test by intestinal microorganism; assay type: cell-based; conditions: 0.5 w/v % saccharide in PYF broth, 37° C., 96 hours; free of sugar: -
[10] = tested on: Bifidobacterium animalis JCM 1190; test: Assimilation test by intestinal microorganism; assay type: cell-based; conditions: 0.5 w/v % saccharide in PYF broth, 37° C., 96 hours; free of sugar: -
[11] = tested on: Bacteroides uniformis JCM 5828; test: Assimilation test by intestinal microorganism; assay type: cell-based; conditions: 0.5 w/v % saccharide in PYF broth, 37° C., 96 hours; free of sugar: -
[12] = tested on: Clostridium perfringens JCM 3816; assay type: cell-based; conditions: 0.5 w/v % saccharide in PYF broth, 37° C., 96 hours; free of sugar: -
[13] = tested on: Clostridium sporogenes JCM 1416; test: Assimilation test by intestinal microorganism; assay type: cell-based; conditions: 0.5 w/v % saccharide in PYF broth, 37° C., 96 hours; free of sugar: ±
Experimental: To evaluate the growth rate of and to judge the assimilability by the microorganisms, the resultant broth was diluted 5-fold, and the turbidity of the dilution was measured at a wavelength of 750 nm in a 1-cm light-path cell. […] The criteria were in Table 3, and the results were in Tables 4 and 5: […]

[14] = tested on: Streptococcus faecalis IAM 10065; test: Assimilation test by intestinal microorganism; assay type: cell-based; conditions: 0.5 w/v % saccharide in PYF broth, 37° C., 96 hours; free of sugar: -
[15] = tested on: Streptococcus sobrinus ATCC 27351; test: Acid formation by dental caries-inducing microorganisms; conditions: for pH at each fermentation time (min): living wet cells, 0.02M saccharide, Stephen buffer pH 7.0, 37° C.
[16] = tested on: Bifidobacterium adolescentis JCM 1275; test: Assimilation test by intestinal microorganism; assay type: cell-based; conditions: 0.5 w/v % saccharide in PYF broth, 37° C., 96 hours; free of sugar: -
[17] = tested on: Bacteroides distasonis JCM 5825; test: Assimilation test by intestinal microorganism; assay type: cell-based; conditions: 0.5 w/v % saccharide in PYF broth, 37° C., 96 hours; free of sugar: -
[18] = tested on: Bifidobacterium longum JCM 1217; test: Assimilation test by intestinal microorganism; assay type: cell-based; conditions: 0.5 w/v % saccharide in PYF broth, 37° C., 96 hours; free of sugar: -
[19] = tested on: Bifidobacterium bifidum JCM 1255; test: Assimilation test by intestinal microorganism; assay type: cell-based; conditions: 0.5 w/v % saccharide in PYF broth, 37° C., 96 hours; free of sugar: -
[20] = target: T1, Salivary amylase (Homo sapiens, UniProt P0DUB6); test: in vitro
T1 sequence (P0DUB6 16-511): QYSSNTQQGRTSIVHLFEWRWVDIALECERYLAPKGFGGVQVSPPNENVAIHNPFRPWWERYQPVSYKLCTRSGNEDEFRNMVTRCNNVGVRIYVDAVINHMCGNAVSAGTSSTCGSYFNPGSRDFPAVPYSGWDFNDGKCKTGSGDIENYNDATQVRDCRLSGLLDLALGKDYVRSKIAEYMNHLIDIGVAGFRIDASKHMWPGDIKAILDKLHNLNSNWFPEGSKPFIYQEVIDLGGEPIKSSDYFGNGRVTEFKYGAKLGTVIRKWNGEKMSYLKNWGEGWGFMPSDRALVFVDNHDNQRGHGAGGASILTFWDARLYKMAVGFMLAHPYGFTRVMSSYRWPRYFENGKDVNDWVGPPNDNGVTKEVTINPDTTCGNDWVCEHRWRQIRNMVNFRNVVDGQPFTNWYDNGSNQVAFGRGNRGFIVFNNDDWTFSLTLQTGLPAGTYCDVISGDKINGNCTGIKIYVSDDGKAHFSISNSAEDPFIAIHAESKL

[21] = target: T2, Pancreatic juice amylase (Homo sapiens, UniProt P04746); test: in vitro
T2 sequence (P04746 16-511): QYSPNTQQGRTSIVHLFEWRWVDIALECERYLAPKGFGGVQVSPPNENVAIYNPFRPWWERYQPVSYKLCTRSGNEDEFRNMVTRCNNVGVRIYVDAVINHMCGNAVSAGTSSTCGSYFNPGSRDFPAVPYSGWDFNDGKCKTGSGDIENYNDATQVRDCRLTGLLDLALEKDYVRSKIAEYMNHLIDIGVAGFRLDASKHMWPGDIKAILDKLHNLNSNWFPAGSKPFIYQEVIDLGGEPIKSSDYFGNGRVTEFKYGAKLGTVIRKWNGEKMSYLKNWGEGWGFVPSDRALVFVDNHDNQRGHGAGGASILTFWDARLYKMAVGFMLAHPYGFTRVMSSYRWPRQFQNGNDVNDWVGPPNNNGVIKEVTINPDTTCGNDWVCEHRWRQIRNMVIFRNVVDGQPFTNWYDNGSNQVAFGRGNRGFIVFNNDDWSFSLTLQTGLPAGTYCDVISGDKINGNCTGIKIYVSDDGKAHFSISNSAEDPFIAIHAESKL

[22] = tested on: Escherichia coli IFO 3301; test: Assimilation test by intestinal microorganism; assay type: cell-based; conditions: 0.5 w/v % saccharide in PYF broth, 37° C., 96 hours; free of sugar: -
[23] = tested on: Clostridium ramosum JCM 1298; test: Assimilation test by intestinal microorganism; assay type: cell-based; conditions: 0.5 w/v % saccharide in PYF broth, 37° C., 96 hours; free of sugar: -
[24] = in vitro; conditions: small intestinal mucosa enzyme
[25] = tested on: Clostridium butyricum JCM 1391; assay type: cell-based; conditions: 0.5 w/v % saccharide in PYF broth, 37° C., 96 hours; free of sugar: -
[26] = tested on: glucosyltransferase; test: Inhibition of insoluble glucan formation by glucosyltransferase from dental caries-inducing microorganism; assay type: biochemical, Streptococcus sobrinus strain (ATCC 27351); conditions: sucrose plus test saccharide (one ml of one w/v % each), 37° C., 16 hours
Experimental: To a mixture solution consisting of one ml of one w/v % sucrose solution, one ml of one w/v % of a test saccharide solution, and 1.5 ml of 0.1M phosphate buffer (pH 6.8) was added 0.5 ml solution containing a crude glucosyltransferase specimen in a total protein content of 10 mg, and the mixture solution was placed in a small test tube which was then fixed and slanted to give a grade 30 degrees and allowed to react at 37° C. for 16 hours. The reaction mixture was transferred gently to another test tube and mixed with a solution obtained by washing carefully with 4 ml water the remaining substances adhered to the inner walls of the small test tube, and the mixture solution was centrifuged to obtain a precipitate as a non-adsorbed glucan. The amounts of the adsorbed- and non-adsorbed glucans thus obtained were respectively quantified by the anthrone-sulfuric acid method, and the total amount of them was regarded as the amount of the formed insoluble glucans. As a control system, a reaction system using water in place of the test saccharide solution, i.e. a reaction system using sucrose as a saccharide, was provided.

SMILES | Judgement of assimilation (turbidity at 750 nm, ×5) [1] | Judgement of assimilation (turbidity at 750 nm, ×5) [2] | Judgement of assimilation (turbidity at 750 nm, ×5) [3] | Judgement of assimilation (turbidity at 750 nm, ×5) [4] | Judgement of assimilation (turbidity at 750 nm, ×5) [6] | Judgement of assimilation (turbidity at 750 nm, ×5) [7] | Coloration degree (at a wavelength of 480 nm) [8] | Judgement of assimilation (turbidity at 750 nm, ×5) [9] | Judgement of assimilation (turbidity at 750 nm, ×5) [10] | Judgement of assimilation (turbidity at 750 nm, ×5) [11] | Judgement of assimilation (turbidity at 750 nm, ×5) [12] | Judgement of assimilation (turbidity at 750 nm, ×5) [14] | pH reduction / acid fermentation, in words [15] | pH at each fermentation time (min) ([15]; 0 min) | pH at each fermentation time (min) ([15]; 5 min) | pH at each fermentation time (min) ([15]; 15 min) | pH at each fermentation time (min) ([15]; 30 min) | pH at each fermentation time (min) ([15]; 60 min) | pH at each fermentation time (min) ([15]; 90 min) | Judgement of assimilation (turbidity at 750 nm, ×5) [16] | other results
OC[C@H]1O[C@H](OC[C@H]2OC(O)[C@H](O)[C@@H](O)[C@@H]2O)[C@H](O)[C@@H](O)[C@@H]1O (stereo partly shown) [Isomaltose, reference compound] | - (Less than 0.1) | - (Less than 0.1) | + (0.15 or higher but less than 0.2) | +++ (0.3 or higher) | - (Less than 0.1) | +++ (0.3 or higher) | 0.938 | - (Less than 0.1) | +++ (0.3 or higher) | - (Less than 0.1) | ± (0.1 or higher but less than 0.15) | + (0.15 or higher but less than 0.2) | slight | 7.0 | 7.0 | 6.9 | 6.9 | 6.8 | 6.7 | +++ (0.3 or higher) | degraded [5]: 0%; Judgement of assimilation (turbidity at 750 nm, ×5) [13]: ± (0.1 or higher but less than 0.15); Judgement of assimilation (turbidity at 750 nm, ×5) [17]: + (0.15 or higher but less than 0.2); Judgement of assimilation (turbidity at 750 nm, ×5) [18]: ++ (0.2 or higher but less than 0.3); Judgement of assimilation (turbidity at 750 nm, ×5) [19]: + (0.15 or higher but less than 0.2); metabolised [20]: 0%; metabolised [21]: 0.2%; Judgement of assimilation (turbidity at 750 nm, ×5) [22]: - (Less than 0.1); Judgement of assimilation (turbidity at 750 nm, ×5) [23]: - (Less than 0.1)
OC[C@H]1O[C@H](O[C@H]2O[C@H](CO)[C@@H](O)[C@H](O)[C@H]2O)[C@H](O)[C@@H](O)[C@@H]1O [Trehalose, α,α-trehalose, reference compound] | + (0.15 or higher but less than 0.2) | + (0.15 or higher but less than 0.2) | - (Less than 0.1) | - (Less than 0.1) | ++ (0.2 or higher but less than 0.3) | - (Less than 0.1) | 0.007 | + (0.15 or higher but less than 0.2) | + (0.15 or higher but less than 0.2) | ++ (0.2 or higher but less than 0.3) | +++ (0.3 or higher) | + (0.15 or higher but less than 0.2) | moderate | 7.0 | 6.7 | 5.3 | 4.7 | 4.3 | 4.2 | + (0.15 or higher but less than 0.2) | metabolised [24]: 1.3%; Judgement of assimilation (turbidity at 750 nm, ×5) [17]: ++ (0.2 or higher but less than 0.3); Judgement of assimilation (turbidity at 750 nm, ×5) [25]: +++ (0.3 or higher); Judgement of assimilation (turbidity at 750 nm, ×5) [18]: ++ (0.2 or higher but less than 0.3); Judgement of assimilation (turbidity at 750 nm, ×5) [19]: + (0.15 or higher but less than 0.2); metabolised [20]: 0%; metabolised [21]: 0%; Judgement of assimilation (turbidity at 750 nm, ×5) [22]: - (Less than 0.1); Judgement of assimilation (turbidity at 750 nm, ×5) [23]: + (0.15 or higher but less than 0.2); Yield of non-adsorbed glucans ([26]; sucrose alone control 923): 1,130 pg/ml; Yield of adsorbed glucans ([26]; sucrose alone control 1,160): 772 pg/mL; Inhibitory percentage (%) on insoluble glucans formation ([26]; vs sucrose alone): 8.7%
